Measured values from BindingDB's records for doi:10.1016/j.bmc.2015.10.001 (Seoul National University, 2015).

Target: Transient receptor potential cation channel subfamily V member 1 (Homo sapiens, UniProt Q8NER1)
Assay: Antagonist activity at human TRPV1 heterologously expressed in CHO cells assessed as inhibition of capsaicin-induced activation by FLIPR assay

Chain of Transient receptor potential cation channel subfamily V member 1 (Q8NER1 whole entry): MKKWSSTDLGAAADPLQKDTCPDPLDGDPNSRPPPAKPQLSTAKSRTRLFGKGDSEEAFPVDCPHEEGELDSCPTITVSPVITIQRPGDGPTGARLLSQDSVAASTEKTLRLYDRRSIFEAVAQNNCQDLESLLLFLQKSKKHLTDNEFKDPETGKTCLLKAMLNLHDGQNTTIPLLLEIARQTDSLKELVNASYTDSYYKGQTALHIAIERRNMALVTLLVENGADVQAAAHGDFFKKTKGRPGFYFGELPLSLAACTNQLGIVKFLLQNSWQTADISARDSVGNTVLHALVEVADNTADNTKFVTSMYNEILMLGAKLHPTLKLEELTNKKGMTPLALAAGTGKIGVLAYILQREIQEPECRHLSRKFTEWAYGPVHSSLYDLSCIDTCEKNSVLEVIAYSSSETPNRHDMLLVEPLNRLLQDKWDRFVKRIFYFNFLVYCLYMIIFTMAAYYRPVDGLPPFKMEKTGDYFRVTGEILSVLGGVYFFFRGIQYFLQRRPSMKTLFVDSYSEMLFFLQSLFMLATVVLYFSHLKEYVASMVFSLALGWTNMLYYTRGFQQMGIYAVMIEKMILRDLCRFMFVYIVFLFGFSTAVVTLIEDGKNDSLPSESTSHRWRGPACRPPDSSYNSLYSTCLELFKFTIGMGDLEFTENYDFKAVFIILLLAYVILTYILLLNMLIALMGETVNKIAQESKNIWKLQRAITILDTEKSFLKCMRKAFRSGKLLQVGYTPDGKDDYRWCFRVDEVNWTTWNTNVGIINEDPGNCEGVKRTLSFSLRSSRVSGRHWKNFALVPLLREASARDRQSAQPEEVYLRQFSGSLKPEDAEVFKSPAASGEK

Ki: 0.7 nM
SMILES: CCCCCOc1cc(C(F)(F)F)ccc1CNC(=O)C(C)c1ccc(NS(C)(=O)=O)c(F)c1 (stereo unspecified)
